Measurements published in paper PMC9783183, “Substrate Recognition Properties from an Intermediate Structural State of the UreA Transporter” (International Journal of Molecular Sciences, 2022).
Read-outs that look alike come from different tables or passages of the source.

How the values were obtained:
UreA wt = target: T1, UreA wt (Aspergillus nidulans, UniProt Q5BGB2); assay: [14C]-urea uptake in germinating conidiospores, wt UreA; type: cell-based; settings: allele wt; for Ki: inhibition of [14C]-urea uptake, Ki from IC50
T1 sequence (Q5BGB2 1-693): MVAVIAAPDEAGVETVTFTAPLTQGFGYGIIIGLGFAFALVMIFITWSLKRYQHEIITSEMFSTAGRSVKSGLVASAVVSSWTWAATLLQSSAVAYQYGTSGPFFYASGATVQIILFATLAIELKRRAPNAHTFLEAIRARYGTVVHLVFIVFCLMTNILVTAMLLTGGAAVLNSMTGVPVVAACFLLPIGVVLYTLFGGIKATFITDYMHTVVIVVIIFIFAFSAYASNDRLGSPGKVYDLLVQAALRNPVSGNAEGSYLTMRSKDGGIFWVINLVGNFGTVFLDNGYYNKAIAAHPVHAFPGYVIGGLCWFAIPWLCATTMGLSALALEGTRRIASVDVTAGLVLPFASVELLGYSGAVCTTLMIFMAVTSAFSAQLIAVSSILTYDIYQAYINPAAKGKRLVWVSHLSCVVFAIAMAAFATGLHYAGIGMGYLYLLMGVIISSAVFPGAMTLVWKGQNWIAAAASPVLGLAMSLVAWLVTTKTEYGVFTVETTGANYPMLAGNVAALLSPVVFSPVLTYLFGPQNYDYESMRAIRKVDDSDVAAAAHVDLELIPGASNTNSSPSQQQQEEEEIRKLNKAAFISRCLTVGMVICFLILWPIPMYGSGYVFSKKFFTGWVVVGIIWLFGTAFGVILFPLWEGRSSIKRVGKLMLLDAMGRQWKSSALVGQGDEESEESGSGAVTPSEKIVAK
Experimental: (§1) Radiolabelled [^14C]-urea (55.0 mCi mmol^−1) was purchased from Moravek Biochemicals, Brea, CA, USA. [^14C]-urea uptake assays were performed in A. nidulans germinating conidiospores. Initial velocities were measured after 2 min of incubation at 37 °C with a [^14C]-urea concentration of 1.0 μΜ, and are expressed as % of the wt value, in pmoles min^−1/10^7 conidiospores. Apparent Km/i values were obtained directly by performing and analyzing [^14C]-urea uptakes (Prism 3.02: Graph Pad Software, Inc., San Diego, CA, USA), from IC50 values in the presence of various concentrations (0.5–3000 μM) of non-labelled substrates, as previously described. […] The Ki values are then calculated from IC50 values, based on the equation: Ki = IC50/[1 + (S/Km)] […] Transport assays were carried out in at least three independent experiments, in triplicates for each concentration or time point. Background uptake values were corrected by subtracting values measured in the deleted mutants (UreAΔ).

UreA W82Y = target: T2, UreA W82Y (Aspergillus nidulans, UniProt Q5BGB2, W82Y); assay: [14C]-urea uptake in germinating conidiospores, UreA W82Y mutant; settings: for Vo (%) initial uptake rate: allele W82Y, % of wt, [14C]-urea 1.0 μM, 2 min, 37 °C
T2 sequence (Q5BGB2 1-693 W82Y): T1 sequence (Q5BGB2 1-693)
Experimental: as §1

UreA W84F = target: T3, UreA W84F (Aspergillus nidulans, UniProt Q5BGB2, W84F); assay: [14C]-urea uptake in germinating conidiospores, UreA W84F mutant
T3 sequence (Q5BGB2 1-693 W84F): T1 sequence (Q5BGB2 1-693)
Experimental: as §1

UreA W82F = settings: cited from earlier work; for affinity relative to wt (in words): allele W82F vs wt, ref [16]
UreA W84A = target: T4, UreA W84A (Aspergillus nidulans, UniProt Q5BGB2, W84A); assay: [14C]-urea uptake in germinating conidiospores, UreA W84A mutant
T4 sequence (Q5BGB2 1-693 W84A): T1 sequence (Q5BGB2 1-693)
Experimental: as §1

UreA T282A = target: T5, UreA T282A (Aspergillus nidulans, UniProt Q5BGB2, T282A); assay: [14C]-urea uptake in germinating conidiospores, UreA T282A mutant; settings: for Vo (%) initial uptake rate: allele T282A, % of wt, [14C]-urea 1.0 μM, 2 min, 37 °C
T5 sequence (Q5BGB2 1-693 T282A): T1 sequence (Q5BGB2 1-693)
Experimental: as §1

UreA N279Q = target: T6, UreA N279Q (Aspergillus nidulans, UniProt Q5BGB2, N279Q); assay: [14C]-urea uptake in germinating conidiospores, UreA N279Q mutant; settings: for Vo (%) initial uptake rate: allele N279Q, % of wt, [14C]-urea 1.0 μM, 2 min, 37 °C
T6 sequence (Q5BGB2 1-693 N279Q): T1 sequence (Q5BGB2 1-693)
Experimental: as §1

UreA N279A = target: T7, UreA N279A (Aspergillus nidulans, UniProt Q5BGB2, N279A); assay: [14C]-urea uptake in germinating conidiospores, UreA N279A mutant
T7 sequence (Q5BGB2 1-693 N279A): T1 sequence (Q5BGB2 1-693)
Experimental: as §1

UreA W84Y = target: T8, UreA W84Y (Aspergillus nidulans, UniProt Q5BGB2, W84Y); assay: [14C]-urea uptake in germinating conidiospores, UreA W84Y mutant
T8 sequence (Q5BGB2 1-693 W84Y): T1 sequence (Q5BGB2 1-693)
Experimental: as §1

UreA T282S = target: T9, UreA T282S (Aspergillus nidulans, UniProt Q5BGB2, T282S); assay: [14C]-urea uptake in germinating conidiospores, UreA T282S mutant; settings: for fold drop in affinity: allele T282S vs wt; for Vo (%) initial uptake rate: allele T282S, % of wt, [14C]-urea 1.0 μM, 2 min, 37 °C
T9 sequence (Q5BGB2 1-693 T282S): T1 sequence (Q5BGB2 1-693)
Experimental: as §1

NC(N)=O = assay: cells, lysate or membranes; settings: 37.0 °C
Experimental: [^14C]-urea uptake assays were performed in A. nidulans germinating conidiospores. Initial velocities were measured after 2 min of incubation at 37 °C with a [^14C]-urea concentration of 1.0 μΜ, and are expressed as % of the wt value, in pmoles min^−1/10^7 conidiospores. Apparent Km/i values were obtained directly by performing and analyzing [^14C]-urea uptakes (Prism 3.02: Graph Pad Software, Inc., San Diego, CA, USA), from IC50 values in the presence of various concentrations (0.5–3000 μM) of non-labelled substrates, as previously described [4, 16, 58]. […] The Ki values are then calculated from IC50 values, based on the equation: Ki = IC50/[1 + (S/Km)] […] Transport assays were carried out in at least three independent experiments, in triplicates for each concentration or time point. Background uptake values were corrected by subtracting values measured in the deleted mutants (UreAΔ). Standard deviation was <20%.

CC(N)=O [Acetamide, acetamide]
Ki (UreA wt; read-out: Acetamide Ki): 237 ± 14 µM | Ki (UreA W82Y): 101 ± 16 µM | Ki (UreA W84F): 524 ± 42 µM | affinity relative to wt (in words) (UreA W82F): augmented | Ki (UreA W82F; allele W82F, ref Sanguinetti et al. (2014) [8], read-out: Acetamide Ki): 198 ± 12 µM | Ki (UreA W84A): 489 ± 39 µM | Ki (UreA T282A): 361 ± 85 µM | fold decrease in affinity (UreA T282A; allele T282A vs wt): 1.6 fold | Ki (UreA N279Q): 87 ± 9 µM | Ki fold lower as compared to the wt (UreA N279Q; allele N279Q vs wt): ≈ 2.7 fold | Ki (UreA N279A): 51 ± 5 µM | Ki fold lower as compared to the wt (UreA N279A; allele N279A vs wt): ≈ 4.6 fold | Ki (UreA W84Y): > 1000 µM | Ki (UreA T282S): 290 ± 12 µM

NC(N)=S [Thiourea, 2-thiourea]
Ki (UreA wt; read-out: Thiourea Ki): 528 ± 42 µM | Ki (UreA W82Y): > 1000 µM | Ki (UreA W84F): > 2000 µM | affinity relative to wt (in words) (UreA W82F): augmented | Ki (UreA W82F; allele W82F, ref Sanguinetti et al. (2014) [8], read-out: Thiourea Ki): 447 ± 24 µM | Ki (UreA W84A): > 2000 µM | Ki (UreA T282A): > 1000 µM | fold decrease in affinity (UreA T282A; allele T282A vs wt): 2 fold | Ki (UreA N279Q): 813 ± 59 µM | affinity fold lower than that of the wt (UreA N279Q; allele N279Q vs wt): 1.5 fold | Ki (UreA N279A): > 1000 µM | Ki (UreA W84Y): > 2000 µM | Ki (UreA T282S): > 1000 µM | fold drop in affinity (UreA T282S): > 2 fold

NC(N)=O [Urea, urea]
Vo (%) initial uptake rate (UreA wt; % of wt, [14C]-urea 1.0 μM, 2 min, 37 °C): 100% | drop in urea affinity (UreA W82Y; allele W82Y vs wt): ≈ 50% | Vo (%) initial uptake rate (UreA W82Y): 25 ± 2% | Vo (%) initial uptake rate (UreA W82Y; listed as urea): ≈ 25% | Vo (%) initial uptake rate (UreA W84F; allele W84F, % of wt, [14C]-urea 1.0 μM, 2 min, 37 °C): 15 ± 2% | affinity relative to wt (in words) (UreA W82F): unchanged | Vo (%) initial uptake rate (UreA W82F; allele W82F, % of wt, ref Sanguinetti et al. (2014) [8]): 50 ± 8% | Km (UreA W82F; allele W82F, ref Sanguinetti et al. (2014) [8]): 23 ± 5 µM | Vo (%) initial uptake rate (UreA W84A; allele W84A, % of wt, [14C]-urea 1.0 μM, 2 min, 37 °C): 20 ± 2% | Km fold lower than that of the wt (UreA T282A; allele T282A vs wt): 3 fold | Vo (%) initial uptake rate (UreA T282A): 14 ± 2% | Vo (%) initial uptake rate (UreA T282A; listed as urea): 14% | affinity fold lower than that of the wt (UreA N279Q; allele N279Q vs wt): 3.5 fold | Vo (%) initial uptake rate (UreA N279Q): 70 ± 3% | Vo (%) initial uptake rate (UreA N279Q; listed as urea): ≈ 70% | Vo (%) initial uptake rate (UreA N279A; allele N279A, % of wt, [14C]-urea 1.0 μM, 2 min, 37 °C): 100 ± 5% | Vo (%) initial uptake rate (UreA W84Y; allele W84Y, % of wt, [14C]-urea 1.0 μM, 2 min, 37 °C): 46 ± 4% | fold drop in affinity (UreA T282S): 5 fold | Vo (%) initial uptake rate (UreA T282S): 65 ± 3% | Vo (%) initial uptake rate (UreA T282S; listed as urea): ≈ 65%

N=C(N)N [guanidine]
affinity relative to wt (in words) (UreA W82F): augmented

UreA N279A (Aspergillus nidulans FGSC A4; N279A)
Km (NC(N)=O; other: allele N279A): 30 ± 3 µM

UreA N279Q (Aspergillus nidulans FGSC A4; N279Q)
Km (NC(N)=O; other: allele N279Q): 91 ± 6 µM

UreA T282A (Aspergillus nidulans FGSC A4; T282A)
Km (NC(N)=O; other: allele T282A): 80 ± 27 µM

UreA T282S (Aspergillus nidulans FGSC A4; T282S)
Km (NC(N)=O; other: allele T282S): 130 ± 22 µM

UreA W82Y (Aspergillus nidulans FGSC A4; W82Y)
Km (NC(N)=O; other: allele W82Y): 42 ± 5 µM

UreA W84A (Aspergillus nidulans FGSC A4; W84A)
Km (NC(N)=O; other: allele W84A): 193 ± 12 µM

UreA W84F (Aspergillus nidulans FGSC A4; W84F)
Km (NC(N)=O; other: allele W84F): 96 ± 13 µM

UreA W84Y (Aspergillus nidulans FGSC A4; W84Y)
Km (NC(N)=O; other: allele W84Y): 159 ± 11 µM
